Patent US20160375016A1, “METHODS FOR REDUCING ANXIETY AND IMPULSIVITY IN SUBJECTS INITIATING TREATMENT WITH SEROTONIN REUPTAKE INHIBITORS” (THE JOHNS HOPKINS UNIVERSITY, priority 2013, published 2016)
Where two headings read alike, the source gives them in different places.

Assays:
[1] = cited from earlier work
[2] = test system: C57BL/6 mice; assay: Elevated plus maze after acute drug administration; assay type: in vivo, mouse; conditions: for anxiety in the elevated plus maze compared to Control mice: FIG. 1A legend, result in words; for time spent in the open arm of the elevated plus maze: reboxetine specificity experiment, FIG. 1D, saline 12.3±3.2, n=8 mice per group
Experimental: Animals and Housing. 7-8 week old male C57BL/6 mice were obtained from the National Cancer Institute (Frederick, Md.) and housed in the Broadway Research Building Johns Hopkins animal facility. Housing and behavioral testing rooms were temperature controlled with a 12 h light/dark cycle, and all behavioral tests were conducted during the light cycle. Animal protocols were approved by the Johns Hopkins University School of Medicine Animal Care and Use Committee.
Drug administration. […]
Elevated Plus Maze. Mice (n=10) were tested on the elevated plus maze in an isolated behavior suite. Mice were placed in the center of the maze and given 5 minutes to freely explore the maze. Time spent in open and closed arms of the maze were tracked using ANY-maze software (Stoelting, Wood Dale, Ill.).
Statistical Analyses. Statistical analyses were completed using GraphPad Prism 5.0 (La Jolla, Calif.). Comparisons between groups in the animal studies were made with one-way ANOVA, and P values <0.05 were considered statistically significant. The Johns Hopkins Institute for Clinical and Translational Research Biostatistics Center provided statistical support.

[3] = assumed from literature for one-compartment model

Structure (SMILES): Fc1ccc([C@@H]2CCNC[C@H]2COc2ccc3c(c2)OCO3)cc1 [paroxetine]
- Cmax ([1]; after a single 30 mg dose): 17.6 ng/mL
- Tmax ([1]; after a single 30 mg dose): 6.3 h
- t1/2 ([1]; after a single 30 mg dose): 16 h

Structure (SMILES): COc1ccccc1N1CCN(CCN(C(=O)C2CCCCC2)c2ccccn2)CC1 [WAY-100635]
- anxiety in the elevated plus maze compared to Control mice [2]: no effect
- reversal of anxiety when co-administered with the SNRI reboxetine ([2]; FIG. 1D legend): does not reverse anxiety
- reversal of anxiety when coadministered with the SSRI fluoxetine ([2]; FIG. 1D legend): reverses anxiety
- time spent in the open arms of the elevated plus maze ([2]; acute treatment 40 minutes before testing, fluoxetine 20 mg/kg, WAY-100635 0.3 mg/kg, FIG. 1A, Control 20.03±10.12): 20.82 ± 15.18 s

Structure (SMILES): CNCCC(Oc1ccc(C(F)(F)F)cc1)c1ccccc1 (centres unmarked) [fluoxetine]
- trough concentration at steady-state ([1]; Prozac Full Prescribing Information): 72 to 258 ng/mL
- half-life (t1/2) ([1]; single 40-mg dose of Prozac): 48 h
- peak drug concentration (Cmax) ([1]; single 40-mg dose of Prozac): 35 ng/mL
- anxiety in the elevated plus maze compared to Control mice [2]: more anxious
- less time in the open arms compared to Control mice ([2]; acute fluoxetine 20 mg/kg vs saline): 72%
- time spent in the open arm of the elevated plus maze [2]: 4.0 ± 4.5 s

Structure (SMILES): CN(C)CCCC1(c2ccc(F)cc2)OCc2cc(C#N)ccc21 (centres unmarked) [citalopram]
- Tmax [1, 3]: 4 h
- V (apparent volume of distribution) [1, 3]: 840 L
- t1/2 [1, 3]: 35 h

Structure (SMILES): COc1ccc(C(CN(C)C)C2(O)CCCCC2)cc1 (centres unmarked) [venlafaxine]
- Tmax [1, 3]: 8 h
- V (apparent volume of distribution) [1, 3]: 426 L
- t1/2 [1, 3]: 16.9 h

Structure (SMILES): CN[C@H]1CC[C@@H](c2ccc(Cl)c(Cl)c2)c2ccccc21 [sertraline]
- Tmax [1, 3]: 6.5 h
- V (apparent volume of distribution) [1, 3]: 1400 L
- t1/2 [1, 3]: 26 h

Structure (SMILES): CCOc1ccccc1OC(c1ccccc1)C1CNCCO1 (centres unmarked) [reboxetine]
- time spent in the open arm of the elevated plus maze [2]: 10.6 ± 10.8 s

Structure (SMILES): COCCCC/C(=N\OCCN)c1ccc(C(F)(F)F)cc1 [fluvoxamine]
- Cmax ([1]; after a single 50 mg dose): 30 ng/mL
- Tmax ([1]; after a single 50 mg dose): 6 h
- t1/2 ([1]; after a single 50 mg dose): 19 h
